Measured values published in PubChem BioAssay (NCI).
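Five concentrations, 48 hours, 96-well plates. TGI is the concentration that stops growth completely.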

Assays:
Assay in all cases: NCI anticancer screen, dose series, 48 h
786-0 renal = tested on: 786-0 renal
A498 renal = tested on: A498 renal
A549 NSCLC = tested on: A549 NSCLC
ACHN renal = tested on: ACHN renal
BT-549 breast = tested on: BT-549 breast
CAKI-1 renal = tested on: CAKI-1 renal
CCRF-CEM leukemia = tested on: CCRF-CEM leukemia
COLO 205 colon = tested on: COLO 205 colon
DU-145 prostate = tested on: DU-145 prostate
EKVX NSCLC = tested on: EKVX NSCLC
HCC-2998 colon = tested on: HCC-2998 colon
HCT-116 colon = tested on: HCT-116 colon
HCT-15 colon = tested on: HCT-15 colon
HOP-62 NSCLC = tested on: HOP-62 NSCLC
HOP-92 NSCLC = tested on: HOP-92 NSCLC
HS 578T breast = tested on: HS 578T breast
HT29 colon = tested on: HT29 colon
IGROV1 ovarian = tested on: IGROV1 ovarian
K-562 leukemia = tested on: K-562 leukemia
KM12 colon = tested on: KM12 colon
LOX IMVI melanoma = tested on: LOX IMVI melanoma
M14 melanoma = tested on: M14 melanoma
MALME-3M melanoma = tested on: MALME-3M melanoma
MCF7 breast = tested on: MCF7 breast
MDA-MB-231 breast = tested on: MDA-MB-231 breast
MDA-MB-435 = tested on: MDA-MB-435
MDA-N = tested on: MDA-N
MOLT-4 leukemia = tested on: MOLT-4 leukemia
NCI-H226 lung = tested on: NCI-H226 lung
NCI-H23 lung = tested on: NCI-H23 lung
NCI-H460 lung = tested on: NCI-H460 lung
NCI-H522 lung = tested on: NCI-H522 lung
NCI/ADR-RES ovarian = tested on: NCI/ADR-RES ovarian
OVCAR-3 ovarian = tested on: OVCAR-3 ovarian
OVCAR-4 ovarian = tested on: OVCAR-4 ovarian
OVCAR-5 ovarian = tested on: OVCAR-5 ovarian
OVCAR-8 ovarian = tested on: OVCAR-8 ovarian
PC-3 prostate = tested on: PC-3 prostate
RPMI-8226 leukemia = tested on: RPMI-8226 leukemia
RXF 393 renal = tested on: RXF 393 renal
SF-268 CNS = tested on: SF-268 CNS
SF-295 CNS = tested on: SF-295 CNS
SF-539 CNS = tested on: SF-539 CNS
SK-MEL-2 melanoma = tested on: SK-MEL-2 melanoma
SK-MEL-28 melanoma = tested on: SK-MEL-28 melanoma
SK-MEL-5 melanoma = tested on: SK-MEL-5 melanoma
SK-OV-3 ovarian = tested on: SK-OV-3 ovarian
SN12C renal = tested on: SN12C renal
SNB-19 CNS = tested on: SNB-19 CNS
SNB-75 CNS = tested on: SNB-75 CNS
SR leukemia = tested on: SR leukemia
SW-620 colon = tested on: SW-620 colon
T-47D breast = tested on: T-47D breast
TK-10 renal = tested on: TK-10 renal
U251 CNS = tested on: U251 CNS
UACC-257 melanoma = tested on: UACC-257 melanoma
UACC-62 melanoma = tested on: UACC-62 melanoma
UO-31 renal = tested on: UO-31 renal

In the case of `ON[C@H]1C[C@@H](n2cnc3c(NC4CC4)ncnc32)[C@H](O)[C@@H]1O`, the TGI (786-0 renal) is reported as > 100 µM, the TGI (A498 renal) is reported as > 100 µM and the TGI (A549 NSCLC) is reported as > 100 µM. The TGI (ACHN renal) was > 100 µM, the TGI (BT-549 breast) was > 100 µM and the TGI (CAKI-1 renal) was > 100 µM. The TGI (CCRF-CEM leukemia) was > 100 µM, the TGI (COLO 205 colon) was > 100 µM and the TGI (DU-145 prostate) was > 100 µM. For the same molecule, the TGI (EKVX NSCLC) was > 100 µM, the TGI (HCC-2998 colon) was > 100 µM and the TGI (HCT-116 colon) was > 100 µM. For the same molecule, the TGI (HCT-15 colon) was > 100 µM, the TGI (HOP-62 NSCLC) was > 100 µM and the TGI (HOP-92 NSCLC) was > 100 µM. The TGI (HS 578T breast) was > 100 µM, the TGI (HT29 colon) was > 100 µM and the TGI (IGROV1 ovarian) was > 100 µM. The TGI (K-562 leukemia) was > 100 µM, the TGI (KM12 colon) was > 100 µM and the TGI (LOX IMVI melanoma) was > 100 µM. The TGI (M14 melanoma) was > 100 µM, the TGI (MALME-3M melanoma) was > 100 µM and the TGI (MCF7 breast) was > 100 µM. For the same molecule, the TGI (MDA-MB-231 breast) was > 100 µM, the TGI (MDA-MB-435) was > 100 µM and the TGI (MDA-N) was > 100 µM. The TGI (MOLT-4 leukemia) was > 100 µM, the TGI (NCI-H226 lung) was > 100 µM and the TGI (NCI-H23 lung) was > 100 µM. For the same molecule, the TGI (NCI-H460 lung) was > 100 µM, the TGI (NCI-H522 lung) was > 100 µM and the TGI (NCI/ADR-RES ovarian) was > 100 µM. The TGI (OVCAR-3 ovarian) was > 100 µM, the TGI (OVCAR-4 ovarian) was > 100 µM and the TGI (OVCAR-5 ovarian) was > 100 µM. The TGI (OVCAR-8 ovarian) was > 100 µM, the TGI (PC-3 prostate) was > 100 µM and the TGI (RPMI-8226 leukemia) was > 100 µM. The TGI (RXF 393 renal) was > 100 µM, the TGI (SF-268 CNS) was > 100 µM and the TGI (SF-295 CNS) was > 100 µM. The TGI (SF-539 CNS) was > 100 µM, the TGI (SK-MEL-2 melanoma) was > 100 µM and the TGI (SK-MEL-28 melanoma) was > 100 µM. For the same molecule, the TGI (SK-MEL-5 melanoma) was > 100 µM, the TGI (SK-OV-3 ovarian) was > 100 µM and the TGI (SN12C renal) was > 100 µM. For the same molecule, the TGI (SNB-19 CNS) was > 100 µM, the TGI (SNB-75 CNS) was > 100 µM and the TGI (SR leukemia) was > 100 µM. The TGI (SW-620 colon) was > 100 µM, the TGI (T-47D breast) was > 100 µM and the TGI (TK-10 renal) was > 100 µM. The TGI (U251 CNS) was > 100 µM, the TGI (UACC-257 melanoma) was > 100 µM and the TGI (UACC-62 melanoma) was > 100 µM. For the same molecule, the TGI (UO-31 renal) was > 100 µM.

In the case of `Oc1c(Br)cc(/C=C/c2cccc(/C=C/c3cc(Br)c(O)c(Br)c3)n2)cc1Br`, the TGI (786-0 renal) is reported as 28 µM, the TGI (A498 renal) is reported as 25 µM and the TGI (A549 NSCLC) is reported as 14.9 µM. The TGI (ACHN renal) was 52.3 µM, the TGI (BT-549 breast) was > 100 µM and the TGI (CAKI-1 renal) was 45.6 µM. It also gave a TGI (COLO 205 colon) of 32.1 µM, a TGI (DU-145 prostate) of 14.1 µM and a TGI (EKVX NSCLC) of 34 µM. The TGI (HCC-2998 colon) was 18.8 µM, the TGI (HCT-116 colon) was 21 µM and the TGI (HCT-15 colon) was 26.3 µM. For the same molecule, the TGI (HOP-62 NSCLC) was > 100 µM, the TGI (HOP-92 NSCLC) was 29.6 µM and the TGI (HS 578T breast) was 66.9 µM. The TGI (HT29 colon) was 25.1 µM, the TGI (IGROV1 ovarian) was 27.7 µM and the TGI (K-562 leukemia) was 23.7 µM. The TGI (KM12 colon) was 25.2 µM, the TGI (LOX IMVI melanoma) was 28.8 µM and the TGI (M14 melanoma) was 34.9 µM. The TGI (MCF7 breast) was 42.5 µM, the TGI (MDA-MB-231 breast) was 49.4 µM and the TGI (MDA-MB-435) was 46.5 µM. For the same molecule, the TGI (MDA-N) was 39.6 µM, the TGI (MOLT-4 leukemia) was 14.7 µM and the TGI (NCI-H460 lung) was 11.3 µM. For the same molecule, the TGI (NCI/ADR-RES ovarian) was 85.6 µM, the TGI (OVCAR-3 ovarian) was 31.1 µM and the TGI (OVCAR-4 ovarian) was 35.7 µM. For the same molecule, the TGI (OVCAR-5 ovarian) was 32.3 µM, the TGI (OVCAR-8 ovarian) was 41.7 µM and the TGI (PC-3 prostate) was 25.1 µM. It also gave a TGI (RPMI-8226 leukemia) of 27.5 µM, a TGI (SF-268 CNS) of 32.9 µM and a TGI (SF-295 CNS) of 47.4 µM. The TGI (SF-539 CNS) was 26.6 µM, the TGI (SK-MEL-2 melanoma) was 20.1 µM and the TGI (SK-MEL-28 melanoma) was 58.6 µM. It also gave a TGI (SK-MEL-5 melanoma) of 19.8 µM, a TGI (SK-OV-3 ovarian) of 62.9 µM and a TGI (SN12C renal) of 24.3 µM. It also gave a TGI (SNB-19 CNS) of 29.4 µM, a TGI (SNB-75 CNS) of 31.6 µM and a TGI (SR leukemia) of 18.9 µM. It also gave a TGI (SW-620 colon) of 50.6 µM, a TGI (T-47D breast) of 31.4 µM and a TGI (TK-10 renal) of 56.3 µM. It also gave a TGI (U251 CNS) of 21.2 µM, a TGI (UACC-257 melanoma) of 37.2 µM and a TGI (UACC-62 melanoma) of 41.8 µM. It also gave a TGI (UO-31 renal) of 28.4 µM.
